The values that follow are results of earlier work, collected in patent US20050004010A1, “Cobalamin conjugates useful as imaging agents and as antitumor agents” (Mayo Foundation For Medical Education, priority 1999, published 2005).

For the series the following is noted: L isomer versus D isomer.

Consider `COc1cccc2c1C(=O)c1c(O)c3c(c(O)c1C2=O)C[C@@](O)(C(C)=O)C[C@@H]3O[C@H]1C[C@H](NC(=O)[C@@H](N)CC(C)C)C(O)[C@H](C)O1` (stereo partly drawn) [N-(L-leucyl) daunorubicin], for which the “hydrolysis in vivo to regenerate daunorubicin” value is “hydrolyzed in vivo to regenerate daunorubicin”.
